Results reported in patent US20060069132A1, “Azolecarboxamide herbicides” (priority 2004, published 2006).

How the values were obtained:
[1] = test system: barnyardgrass; test: Test B pre-/postemergence herbicide test; type: in vivo, Echinochloa crus-galli
Summary of the method: (§1)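 Herbicidal effect was judged by eye on a 0–100 scale after plants stood 13 to 15 days in the greenhouse following pre- or postemergence treatment with surfactant-containing formulations.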

[2] = test system: Surinam grass; test: Test B pre-/postemergence herbicide test; type: in vivo, Urochloa decumbens
Summary of the method: (§2)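 Flooded paddy rice and barnyardgrass were treated at the 2-leaf stage; upland plantings received compound either on sown seed or on 1- to 4-leaf seedlings. All were kept 13–15 days in a greenhouse and scored visually, 0–100, relative to untreated plants.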

[3] = test system: cocklebur; test: Test B pre-/postemergence herbicide test; type: in vivo, Xanthium strumarium
Summary of the method: as §1

[4] = test system: corn; test: Test B pre-/postemergence herbicide test; type: in vivo, Zea mays
Summary of the method: as §2

[5] = test system: large crabgrass; test: Test B pre-/postemergence herbicide test; type: in vivo, Digitaria sanguinalis
Summary of the method: as §2

[6] = test system: giant foxtail; test: Test B pre-/postemergence herbicide test; type: in vivo, Setaria faberi
Summary of the method: as §2

[7] = test system: lambsquarters; test: Test B pre-/postemergence herbicide test; type: in vivo, Chenopodium album
Summary of the method: as §2

[8] = test system: morningglory; test: Test B pre-/postemergence herbicide test; type: in vivo, Ipomoea coccinea
Summary of the method: as §1

[9] = test system: velvetleaf; test: Test B pre-/postemergence herbicide test; type: in vivo, Abutilon theophrasti
Summary of the method: as §2

[10] = test system: blackgrass; test: Test B postemergence herbicide test; type: in vivo, Alopecurus myosuroides
Summary of the method: (§3)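 Treated at 2-leaf (paddy) or 1–4-leaf, 2–18 cm (postemergence); greenhouse 13–15 d; visual score vs control, 0 none to 100 complete control; dash = not tested.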

[11] = test system: wheat; test: Test B postemergence herbicide test; type: in vivo, Triticum aestivum; parameters: key to Wheat plant response rating: 0 = no effect, 100 = complete control
Summary of the method: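 Visual ratings, 0 (no effect) to 100 (complete control), made versus controls after 13–15 d greenhouse. Paddy plants treated at 2-leaf stage; postemergence plants at 1- to 4-leaf stage, 2–18 cm tall.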

[12] = test system: rice; test: Test B flooded paddy test; type: in vivo, Oryza sativa; settings: 1000 g ai/ha, scale 0 to 100 (0 no effect, 100 complete control)
Summary of the method: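 After treating 2-leaf paddy plants or 2–18 cm postemergence plants (1 to 4 leaves) with formulated chemical, researchers kept them in a greenhouse for 13–15 days. Effects were judged visually versus controls: 0 indicates none, 100 total control.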

[13] = test system: small flower umbrella sedge; test: Test B flooded paddy test; type: in vivo, Cyperus difformis; settings: 1000 g ai/ha, scale 0 to 100 (0 no effect, 100 complete control)
Summary of the method: as §3

[14] = test system: ducksalad; test: Test B flooded paddy test; type: in vivo, Heteranthera limosa; settings: 1000 g ai/ha, scale 0 to 100 (0 no effect, 100 complete control)
Summary of the method: as §3

[15] = test system: barnyardgrass; test: Test B flooded paddy test; type: in vivo, Echinochloa crus-galli; settings: 1000 g ai/ha, scale 0 to 100 (0 no effect, 100 complete control)
Summary of the method: as §3

[16] = 125 g ai/ha; 0 = no effect, 100 = complete control; preemergence
[17] = 500 g ai/ha; visual rating, 0 = no effect, 100 = complete control; preemergence
[18] = postemergence, 125 g ai/ha; visual rating, scale 0 (no effect) to 100 (complete control)
[19] = postemergence, 500 g ai/ha; scale 0 to 100, 0 is no effect, 100 is complete control
[20] = 125 g ai/ha; visual rating, scale 0 (no effect) to 100 (complete control); postemergence

SMILES: CCn1nc(C(C)(C)C)cc1C(=O)Nc1cccc(OC(F)(F)F)c1 [Compound 272]
- Barnyardgrass plant response rating (0 to 100 scale) [1, 16]: 10
- Plant response rating, Barnyardgrass [1, 17]: 90
- Barnyardgrass plant response rating [1, 18]: 20
- Barnyardgrass plant response rating [1, 19]: 80
- Surinam Grass plant response rating (0 to 100 scale) [2, 16]: 10
- Plant response rating, Surinam Grass [2, 17]: 70
- Surinam Grass plant response rating [2, 18]: 10
- Surinam Grass plant response rating [2, 19]: 60
- Cocklebur plant response rating (0 to 100 scale) [3, 16]: 0
- Plant response rating, Cocklebur [3, 17]: 0
- Cocklebur plant response rating [3, 18]: 40
- Cocklebur plant response rating [3, 19]: 90
- Corn plant response rating (0 to 100 scale) [4, 16]: 0
- Plant response rating, Corn [4, 17]: 10
- Corn plant response rating [4, 18]: 30
- Corn plant response rating [4, 19]: 40
- Crabgrass, Large plant response rating (0 to 100 scale) [5, 16]: 80
- Plant response rating, Crabgrass, Large [5, 17]: 100
- Crabgrass, Large plant response rating [5, 18]: 10
- Crabgrass, Large plant response rating [5, 19]: 70
- Foxtail, Giant plant response rating (0 to 100 scale) [6, 16]: 30
- Plant response rating, Foxtail, Giant [6, 17]: 90
- Foxtail, Giant plant response rating [6, 18]: 10
- Foxtail, Giant plant response rating [6, 19]: 30
- Lambsquarters plant response rating (0 to 100 scale) [7, 16]: 100
- Plant response rating, Lambsquarters [7, 17]: 100
- Lambsquarters plant response rating [7, 18]: 100
- Lambsquarters plant response rating [7, 19]: 100
- Morningglory plant response rating (0 to 100 scale) [8, 16]: 0
- Plant response rating, Morningglory [8, 17]: 30
- Morningglory plant response rating [8, 18]: 90
- Morningglory plant response rating [8, 19]: 100
- Velvetleaf plant response rating (0 to 100 scale) [9, 16]: 10
- Plant response rating, Velvetleaf [9, 17]: 50
- Velvetleaf plant response rating [9, 18]: 50
- Velvetleaf plant response rating [9, 19]: 100
- Blackgrass plant response rating [10, 18]: 60
- Blackgrass plant response rating [10, 19]: 100
- Wheat plant response rating [11, 18]: 20
- Wheat plant response rating [11, 19]: 30
- Rice plant response rating [12]: 40
- Sedge, Umbrella plant response rating [13]: 80
- Ducksalad plant response rating [14]: 80
- Barnyardgrass plant response rating [15]: 50

SMILES: CCn1nc(C(C)(C)C)cc1C(=O)Nc1cccc(OC(C)C)c1 [Compound 273]
- Barnyardgrass plant response rating (0 to 100 scale) [1, 16]: 30
- Plant response rating, Barnyardgrass [1, 17]: 90
- Barnyardgrass plant response rating [1, 18]: 20
- Barnyardgrass plant response rating [1, 19]: 70
- Surinam Grass plant response rating (0 to 100 scale) [2, 16]: 20
- Plant response rating, Surinam Grass [2, 17]: 50
- Surinam Grass plant response rating [2, 18]: 20
- Surinam Grass plant response rating [2, 19]: 40
- Cocklebur plant response rating (0 to 100 scale) [3, 16]: 0
- Plant response rating, Cocklebur [3, 17]: 0
- Cocklebur plant response rating [3, 18]: 20
- Cocklebur plant response rating [3, 19]: 80
- Corn plant response rating (0 to 100 scale) [4, 16]: 0
- Plant response rating, Corn [4, 17]: 30
- Corn plant response rating [4, 18]: 10
- Corn plant response rating [4, 19]: 20
- Crabgrass, Large plant response rating (0 to 100 scale) [5, 16]: 80
- Plant response rating, Crabgrass, Large [5, 17]: 100
- Crabgrass, Large plant response rating [5, 18]: 30
- Crabgrass, Large plant response rating [5, 19]: 50
- Foxtail, Giant plant response rating (0 to 100 scale) [6, 16]: 50
- Plant response rating, Foxtail, Giant [6, 17]: 90
- Foxtail, Giant plant response rating [6, 18]: 10
- Foxtail, Giant plant response rating [6, 19]: 20
- Lambsquarters plant response rating (0 to 100 scale) [7, 16]: 70
- Plant response rating, Lambsquarters [7, 17]: 100
- Lambsquarters plant response rating [7, 18]: 60
- Lambsquarters plant response rating [7, 19]: 90
- Morningglory plant response rating (0 to 100 scale) [8, 16]: 0
- Plant response rating, Morningglory [8, 17]: 10
- Morningglory plant response rating [8, 18]: 20
- Morningglory plant response rating [8, 19]: 70
- Velvetleaf plant response rating (0 to 100 scale) [9, 16]: 10
- Plant response rating, Velvetleaf [9, 17]: 40
- Velvetleaf plant response rating [9, 18]: 40
- Velvetleaf plant response rating [9, 19]: 70
- Blackgrass plant response rating [10, 18]: 50
- Blackgrass plant response rating [10, 19]: 70
- Wheat plant response rating [11, 18]: 30
- Wheat plant response rating [11, 19]: 40
- Rice plant response rating [12]: 40
- Sedge, Umbrella plant response rating [13]: 80
- Ducksalad plant response rating [14]: 90
- Barnyardgrass plant response rating [15]: 60

SMILES: CCn1nc(C(C)(C)C)cc1C(=O)Nc1cccc(C(=O)N2CC=CC2)c1 [Compound 286]
- Barnyardgrass plant response rating (0 to 100 scale) [1, 16]: 30
- Plant response rating, Barnyardgrass [1, 17]: 90
- Barnyardgrass plant response rating [1, 18]: 0
- Barnyardgrass plant response rating [1, 19]: 0
- Surinam Grass plant response rating (0 to 100 scale) [2, 16]: 10
- Plant response rating, Surinam Grass [2, 17]: 60
- Surinam Grass plant response rating [2, 18]: 10
- Surinam Grass plant response rating [2, 19]: 20
- Cocklebur plant response rating (0 to 100 scale) [3, 16]: 0
- Plant response rating, Cocklebur [3, 17]: 0
- Cocklebur plant response rating [3, 18]: 10
- Cocklebur plant response rating [3, 19]: 20
- Corn plant response rating (0 to 100 scale) [4, 16]: 0
- Plant response rating, Corn [4, 17]: 50
- Corn plant response rating [4, 18]: 0
- Corn plant response rating [4, 19]: 10
- Crabgrass, Large plant response rating (0 to 100 scale) [5, 16]: 0
- Plant response rating, Crabgrass, Large [5, 17]: 100
- Crabgrass, Large plant response rating [5, 18]: 0
- Crabgrass, Large plant response rating [5, 19]: 10
- Foxtail, Giant plant response rating (0 to 100 scale) [6, 16]: 10
- Plant response rating, Foxtail, Giant [6, 17]: 90
- Foxtail, Giant plant response rating [6, 18]: 20
- Foxtail, Giant plant response rating [6, 19]: 50
- Lambsquarters plant response rating (0 to 100 scale) [7, 16]: 100
- Plant response rating, Lambsquarters [7, 17]: 100
- Lambsquarters plant response rating [7, 18]: 10
- Lambsquarters plant response rating [7, 19]: 70
- Morningglory plant response rating (0 to 100 scale) [8, 16]: 0
- Plant response rating, Morningglory [8, 17]: 0
- Morningglory plant response rating [8, 18]: 0
- Morningglory plant response rating [8, 19]: 0
- Velvetleaf plant response rating (0 to 100 scale) [9, 16]: 0
- Plant response rating, Velvetleaf [9, 17]: 60
- Velvetleaf plant response rating [9, 18]: 10
- Velvetleaf plant response rating [9, 19]: 60
- Blackgrass plant response rating [10, 18]: 10
- Blackgrass plant response rating [10, 19]: 20
- Wheat plant response rating [11, 18]: 20
- Wheat plant response rating [11, 19]: 30
- Rice plant response rating [12]: 70
- Sedge, Umbrella plant response rating [13]: 80
- Ducksalad plant response rating [14]: 90
- Barnyardgrass plant response rating [15]: 90

SMILES: CCn1nc(C(C)(C)C)cc1C(=O)Nc1cncc(C(=O)N(C)C)n1 [Compound 287]
- Barnyardgrass plant response rating (0 to 100 scale) [1, 16]: 80
- Barnyardgrass plant response rating [1, 20]: 0
- Plant response rating, Barnyardgrass [1, 17]: 100
- Barnyardgrass plant response rating [1, 19]: 20
- Surinam Grass plant response rating (0 to 100 scale) [2, 16]: 50
- Surinam Grass plant response rating [2, 20]: 0
- Plant response rating, Surinam Grass [2, 17]: 80
- Surinam Grass plant response rating [2, 19]: 10
- Cocklebur plant response rating (0 to 100 scale) [3, 16]: 0
- Cocklebur plant response rating [3, 20]: 10
- Plant response rating, Cocklebur [3, 17]: 60
- Cocklebur plant response rating [3, 19]: 10
- Corn plant response rating (0 to 100 scale) [4, 16]: 0
- Corn plant response rating [4, 20]: 0
- Plant response rating, Corn [4, 17]: 30
- Corn plant response rating [4, 19]: 70
- Crabgrass, Large plant response rating (0 to 100 scale) [5, 16]: 70
- Crabgrass, Large plant response rating [5, 20]: 0
- Plant response rating, Crabgrass, Large [5, 17]: 100
- Crabgrass, Large plant response rating [5, 19]: 0
- Foxtail, Giant plant response rating (0 to 100 scale) [6, 16]: 10
- Foxtail, Giant plant response rating [6, 20]: 20
- Plant response rating, Foxtail, Giant [6, 17]: 90
- Foxtail, Giant plant response rating [6, 19]: 80
- Lambsquarters plant response rating (0 to 100 scale) [7, 16]: 100
- Lambsquarters plant response rating [7, 20]: 10
- Plant response rating, Lambsquarters [7, 17]: 100
- Lambsquarters plant response rating [7, 19]: 20
- Morningglory plant response rating (0 to 100 scale) [8, 16]: 0
- Morningglory plant response rating [8, 20]: 0
- Plant response rating, Morningglory [8, 17]: 10
- Morningglory plant response rating [8, 19]: 20
- Velvetleaf plant response rating [9, 20]: 0
- Plant response rating, Velvetleaf [9, 17]: 100
- Velvetleaf plant response rating [9, 19]: 60
- Blackgrass plant response rating [10, 20]: 10
- Blackgrass plant response rating [10, 19]: 30
- Wheat plant response rating [11, 20]: 10
- Wheat plant response rating [11, 19]: 30
- Rice plant response rating [12]: 70
- Sedge, Umbrella plant response rating [13]: 80
- Ducksalad plant response rating [14]: 80
- Barnyardgrass plant response rating [15]: 80
